The nature of this data set: Biodistribution of 3H compound in rat. It is filed as in vivo, Rats (Wistar). The settings on record: Wistar rat, 2, 5, 20 and 40 min p.i. Here is the method:
A tritiated version of 3-[2,4-Difluoro-phenoxy]-phenyl-pyrazole-1-carboxylic acid amide (“Hammersmith compound” in FIG. 1) was custom prepared by GE Healthcare, Cardiff.
Rats (Wistar, ca. 150 g; Charles River UK Ltd) were injected with 0.37 MBq of [^3H]-3-[2,4-Difluoro-phenoxy]-phenyl-pyrazole-1-carboxylic acid amide, as an intravenous bolus via the tail vein. Rats were killed by cervical dislocation at 2, 5, 20 and 40 min post injection (p.i.). Brain (separated as cortex and hippocampus), blood, and major organs were collected, weighed and burned using a Packard Tissue Oxidizer model 307 (Packard Instrument Co., Meriden, Conn.). Samples were then counted in a β-counter (Rack Beta, Perkin Elmer LAS (UK) Ltd).

Molecules are shown by their SMILES.

Consider `NC(=O)n1ccc(-c2ccc(Oc3ccc(F)cc3F)cc2)n1` [[^3H]-3-[2,4-Difluoro-phenoxy]-phenyl-pyrazole-1-carboxylic acid amide], for which, for the setting “0.37 MBq i.v., FIG. 1”, the time activity curves entry was “consistent with reversible binding”. Further, the “brain uptake of the compound” value (0.37 MBq intravenous bolus via tail vein, % id/g shown in FIG. 1) is “good”.

Values taken from US20100247435A1, “MEASUREMENT OF NEURAL ACTIVITY” (priority 2007, published 2010).
